Here are results for 66 molecules from PubChem BioAssay AID743450 (Broad Institute, 2014).

This experiment is described as follows: TB CFU imaging, starved microorganism, inhibitor dose response, confirmatory, dry powder (AID 743450). As to conditions: for activity change, negative = inhibition: at 26 µM (top of the series).

Structures are written as SMILES. Values joined by “and” are separate entries in the source; they are usually repeats but may differ in a detail not shown here. Equal entries are not always repeated. Records with an inconclusive call do not appear. Active and inactive are the calls of the source. How the calls were made is not given here. Bounds are passed on as bounds.

With `CN(C)c1cccc(C(=O)Nc2nc3ccccc3n2C)c1`, the AC90 was 5.34 µM.
On the same count and under the same terms, to `Cn1c(NC(=O)c2cccs2)nc2ccccc21` belongs 4.16 µM and 1.65 µM.
On the same count and under the same terms, to `Cc1cccc(C(=O)Nc2nc3ccccc3n2C)c1` belongs 8.9 µM; to `COc1cccc(C(=O)Nc2nc3ccccc3n2C)c1`, 6.18 µM.
Same read-out and setting: to `Cn1c(NC(=O)c2ccccc2)nc2cc(F)ccc21` belongs 4.55 µM; to `Cn1c(NC(=O)c2ccccc2)nc2cc(Cl)ccc21`, 6.02 µM; to `Cc1ccc(C(=O)Nc2nc3ccccc3n2C)cc1`, 4.71 µM.
Regarding `Cn1c(NC(=O)c2ccc(Cl)cc2)nc2ccccc21`, the AC90 is 12.3 µM.
Consider `COc1ccc2c(c1)nc(NC(=O)c1ccccc1)n2C`, for which the AC90 was 4.26 µM.
Still for that read-out and setting: to `Cn1c(NC(=O)c2ccccc2)nc2cccc(Cl)c21` belongs 10.2 µM; to `Cn1c(NC(=O)c2ccc(F)cc2)nc2ccccc21`, 5.03 µM; to `Cn1c(NC(=O)c2ccccc2)nc2c3ccncc3ccc21`, 6.92 µM.
Still for that read-out and setting: to `O=C(Nc1nc2ccccc2n1Cc1ccccc1)c1ccccc1` belongs 6.74 µM; to `CC(C)Oc1ccc(C(=O)Nc2nc3ccccc3n2C)cc1`, 6.98 µM.
Still for that read-out and setting: to `Cn1c(NC(=O)c2ccc3ccccc3c2)nc2ccccc21` belongs 6.5 µM; to `Cn1c(NC(=O)c2ccccc2Cl)nc2ccccc21`, 4.64 µM.
Turning to `O=C(Nc1nc2ccccc2n1C1CC1)c1ccccc1`, the AC90 was 4.84 µM.
Still for that read-out and setting: to `Cn1c(NC(=O)c2ccccc2)nc2ncccc21` belongs 2.23 µM.
Turning to `CCN(CC)CCn1c(NC(=O)c2ccccc2)nc2ccccc21`, the AC90 is 7.31 µM.
Still for that read-out and setting: to `Cn1c(NC(=O)c2cccnc2)nc2ccccc21` belongs 5.75 µM.
Regarding `Cn1c(N)nc2ccccc21`, the activity change, negative = inhibition was 3% (inactive).
For `Cn1c(NC(=O)c2cccc3ccccc23)nc2ccccc21`, the AC90 was 2.81 µM.
The same measure, in the same setting: the value for `Cn1c(NC(=O)c2ccc(OC(F)(F)F)cc2)nc2ccccc21` was 6.61 µM; that for `Cn1c(NC(=O)c2ccccc2)nc2cc(C(F)(F)F)ccc21` was 6.01 µM; that for `Cc1ccc2c(c1)nc(NC(=O)c1ccccc1)n2C` was 13.6 µM.
On the same count and under the same terms, to `COc1ccc(C(=O)Nc2nc3ccccc3n2C)cc1` belongs 3.71 µM; to `Cn1c(NC(=O)c2ccc(C(C)(C)C)cc2)nc2ccccc21`, 6.68 µM; to `O=C(Nc1nc2ccccc2n1C1CCCCC1)c1ccccc1`, 8.07 µM.
On the same count and under the same terms, the value for `Cc1cc(C(=O)Nc2nc3ccccc3n2C)c(C)o1` was 9.93 µM.
Consider `Cn1c(NC(=O)c2ccccc2)nc2c(C#N)cccc21`, for which the AC90 was 5.26 µM.
The same measure, in the same setting: to `Cn1c(NC(=O)c2cccc(OC(F)F)c2)nc2ccccc21` belongs 22.3 µM; to `COc1ccc(C(=O)Nc2nc3ccccc3n2C)cc1OC`, 11.3 µM; to `O=C(Nc1nc2ccccc2n1CCN1CCCCC1)c1ccccc1`, 12.3 µM.
On to `COCCn1c(NC(=O)c2ccccc2)nc2ccccc21`, for which the AC90 is 2.23 µM.
Regarding `Cn1c(NC(=O)c2ccccc2)nc2ccc(C#N)cc21`, the activity change, negative = inhibition was -66% (inactive).
Still for that read-out and setting: the value for `Cn1c(NC(=O)c2ccccc2)nc2cccnc21` was -100% (inactive).
On to `Cn1c(NC(=O)c2cccc(C(F)(F)F)c2)nc2ccccc21`, for which the activity change, negative = inhibition is -84% (inactive).
Consider `O=C(Nc1nc2ccccc2n1-c1ccccc1)c1ccccc1`, for which the AC90 was > 26 µM (inactive).
Still for that read-out and setting: the value for `Cn1c(NC(=O)c2ccccc2)nc2c3cccnc3ccc21` was 12 µM; that for `Cn1c(NC(=O)c2ccncc2)nc2ccccc21` was 15 µM; that for `Cn1c(NC(=O)c2ccccc2)nc2cc(C#N)ccc21` was 7.91 µM.
The same measure, in the same setting: to `COc1cccc2c1nc(NC(=O)c1ccccc1)n2C` belongs 3.66 µM; to `Cn1c(NC(=O)c2ccccc2)nc2c3nccnc3ccc21`, 1.37 µM; to `CCCCn1c(NC(=O)c2ccccc2)nc2ccccc21`, 7.88 µM.
On the same count and under the same terms, the value for `CN(C(=O)c1ccccc1)c1nc2ccccc2n1C` was > 26 µM (inactive).
Regarding `O=C(Nc1nc2ccccc2[nH]1)c1ccccc1`, the AC90 was 12.3 µM.
On the same count and under the same terms, the value for `COc1ccccc1C(=O)Nc1nc2ccccc2n1C` was 5.86 µM.
Same read-out and setting: to `Cn1c(NC(=O)c2ccccc2)nc2ccccc21` belongs 4.27 µM and 4.2 µM; to `Cn1c(NC(=O)c2ccccc2)nc2ccc3ncccc3c21`, 6.35 µM; to `Cn1c(NC(=O)c2ccccc2F)nc2ccccc21`, 4.84 µM.
Still for that read-out and setting: to `CCn1c(NC(=O)c2ccccc2)nc2ccccc21` belongs 5.52 µM.
Regarding `CCn1c(NC(=O)c2cnn(Cc3ccccc3)c2)nc2ccccc21`, the activity change, negative = inhibition is -74% (inactive).
On to `Cn1c(NC(=O)c2ccccc2NC(=O)c2ccccc2)nc2ccccc21`, for which the AC90 is 5.02 µM.
Same read-out and setting: the value for `Cn1c(NC(=O)c2ccccc2)nc2c(F)cccc21` was 10.1 µM.
As for `O=C(Nc1nc2ccccc2n1CCN1CCOCC1)c1ccccc1`, the activity change, negative = inhibition is -51% (inactive).
Turning to `CCCn1c(NC(=O)c2ccccc2)nc2ccccc21`, the AC90 was 6.02 µM.
For the molecule `Cn1c(NC(=O)c2cccc(Cl)c2)nc2ccccc21`, the AC90 was 5.55 µM.
Same read-out and setting: to `Cn1c(NC(=O)c2ccccc2)nc2c3ncccc3ccc21` belongs 1.18 µM; to `Cn1c(NC(=O)c2ccc(-c3ccccc3)cc2)nc2ccccc21`, 6.25 µM.
The same measure, in the same setting: to `Cn1c(NC(=O)c2ccccc2C(F)(F)F)nc2ccccc21` belongs 7.01 µM.
Still for that read-out and setting: the value for `Cn1c(NC(=O)c2cccc(F)c2)nc2ccccc21` was 7.51 µM; that for `Cn1c(NC(=O)c2ccc(F)c(F)c2)nc2ccccc21` was 19.9 µM.
Consider `Cn1c(NC(=O)Cc2ccccc2)nc2ccccc21`, for which the AC90 was 3.85 µM.
As to `Cn1c(NC(=O)c2ccccc2)nc2ccc(F)cc21`, the AC90 was 4.72 µM.
Same read-out and setting: the value for `CC(C)n1c(NC(=O)c2ccccc2)nc2ccccc21` was 6.68 µM; that for `Cn1c(NC(=O)c2ccccn2)nc2ccccc21` was 5.17 µM.
